Results reported in patent US20150273055A1, “METHODS AND COMPOSITIONS FOR EXPANDING HEMATOPOIETIC STEM AND PROGENITOR CELLS” (UNIVERSITY OF ROCHESTER, priority 2012, published 2015).
“Also recorded” adds a separate entry of the source.

Experiments:
BM vasculature = assay: Histomorphometric analysis of hindlimb bone marrow vasculature after PTH treatment; type: in vivo, mice; settings: PTH treatment vs vehicle
From the text: Osteoblasts (OBs) and the bone marrow (BM) vasculature constitute hematopoietic stem and progenitor cell (HSPC) niches. OB-activation by Parathyroid Hormone (PTH) expands HSPCs through the BM microenvironment. Activation of osteoblasts through systemic PTH treatment or expression of a constitutively active PTH1 receptor (PTH1R) increases trabecular bone and expands HSPCs in the bone marrow. To test if the vasculature is modulated by PTH, it was first assessed whether PTH expands BM endothelial structures. In a murine model of HSPC-expanding PTH treatment, PTH increased microvessels and vascular area in hindlimb histology (FIG. 3A, 3B and 3E-3H). […] To determine if PTH expands BM vasculature by increasing proangiogenic signals, VEGF-A was analyzed in PTH-stimulated BM. […]
(§1) Methods of administration and analysis of the effects of PTH either alone or in combination are described above. To determine whether bone anabolic, HSPC-expanding regimens of PTH stimulation alter the vascular niche, mice were first treated intensively with PTH and the hindlimb BM vasculature was analyzed. PTH increased BM vascular structures per hindlimb section (femur and tibia) by histomorphometric analysis (FIG. 9A) as well as the area occupied by vasculature measured within the tibial metaphysis (FIG. 9B). […]

[1] = test system: CD31+ Sca1+ BM endothelial cells; assay: Flow cytometry of CD31+ Sca1+ bone marrow endothelial cells; type: in vivo, mice; settings: for PTH-mediated expansion of BM endothelial cells: bevacizumab 0.7 mg/kg once per day with PTH thrice per day 10 days, vs PTH alone
Experimental: (§2) All drugs were administered by intraperitoneal injection. Following 10 days of treatment, mice were sacrificed (on the morning of the eleventh day) and samples were harvested. Hindlimb bone marrow samples were used to generate the data for FIG. 8A as well as for the competitive transplantation of whole bone marrow. Hindlimb bone marrow was harvested by crushing the right hindlimb of each mouse individually using a sterile mortar and pestle in 2.5 mL phosphate buffered saline, filtered through a 40 um cell strainer and placed on ice. For flow cytometric analysis, fresh, filtered bone marrow cells were subjected to a red blood cell lysis procedure using ammonium chloride and then prepared for flow cytometry by staining with a panel of fluorescently-conjugated antibodies recognizing markers of hematopoietic stem and progenitor cells. Samples were then run on an LSR-II 12 color flow cytometer and data was analyzed using TreeStar's FlowJo software. Statistics between treatment groups were analyzed by student's T test.
(§3) Methods of administration and analysis of the effects of PTH either alone or in combination are described above. To determine whether bone anabolic, HSPC-expanding regimens of PTH stimulation alter the vascular niche, mice were first treated intensively with PTH and the hindlimb BM vasculature was analyzed. PTH increased BM vascular structures per hindlimb section (femur and tibia) by histomorphometric analysis (FIG. 9A) as well as the area occupied by vasculature measured within the tibial metaphysis (FIG. 9B). To clarify whether intensive PTH treatment was vasodilatory to existing vessels or increasing de novo endothelial structures, BMCs of PTH-treated mice were analyzed phenotypically by flow cytometry (FIG. 9D). Intensive PTH treatment expanded populations of BM endothelial cells defined by this immunophenotyic signature (FIG. 9E). […] This expansion of small BM blood vessels was also observed in close association with both trabecular and cortical bone when CD31 immunostaining was examined in the BM (FIG. 9E). The PTH-induced increase in endothelial structures was accompanied by an increase in perivascular α smooth muscle actin (αSMA+) (FIG. 9F), indicating a concomitant increase in perivascular, HSPC supportive stromal cells.

[2] = test system: vessels larger than 20 um in diameter; assay: Vascular micro-CT of vessels larger than 20 um in diameter; type: in vivo, mice; settings: vascular uCT, TID PTH
From the text: FIGS. 3A-3H are graphs (FIGS. 3A-3G) and pictures (FIG. 3H) showing PTH increases bone marrow microvascularity. FIG. 3A is a graph showing histomorphometric analysis of bone marrow microvascular structures per hindlimb section (femur and tibia). FIG. 3B is a graph showing histomorphometric analysis of bone marrow vascular area, measured within a region of interest in the tibial metaphysis. FIG. 3C is a graph showing frequency of CD31+ Sca1+ bone marrow endothelial cells following TID PTH treatment. FIG. 3D is a graph showing frequency of CD31+ Sca1+ bone marrow endothelial cells isolated from CollcaPTH1R-expressing mice (TG) or wildtype littermates (WT). […]
as §1, with “9B). To clarify whether intensive PTH treatment was vasodilatory to existing vessels or increasing de novo endothelial structures, BMCs of PTH-treated mice were analyzed phenotypically by flow cytometry (FIG. 9D).” for “9B).”

VEGF-A = assay: Immunohistochemical staining for VEGF-A in hindlimb BM; type: in vivo; settings: PTH-treated mice vs vehicle, endosteal/bone surfaces
From the text: Osteoblasts (OBs) and the bone marrow (BM) vasculature constitute hematopoietic stem and progenitor cell (HSPC) niches. OB-activation by Parathyroid Hormone (PTH) expands HSPCs through the BM microenvironment. Activation of osteoblasts through systemic PTH treatment or expression of a constitutively active PTH1 receptor (PTH1R) increases trabecular bone and expands HSPCs in the bone marrow. To test if the vasculature is modulated by PTH, it was first assessed whether PTH expands BM endothelial structures. In a murine model of HSPC-expanding PTH treatment, PTH increased microvessels and vascular area in hindlimb histology (FIG. 3A, 3B and 3E-3H). […] To determine if PTH expands BM vasculature by increasing proangiogenic signals, VEGF-A was analyzed in PTH-stimulated BM. […] To establish whether PTH directly stimulates osteoblastic Vegfa expression, mouse calvarial MC3T3 cells were treated with PTH at various stages of osteoblastic maturation. […] The magnitude of induction increased throughout osteoblastic differentiation. […] Bevacizumab blunted PTH-mediated expansion of phenotypic BM ECs when bevacizumab and PTH treatment was compared to PTH alone.
To determine whether the PTH-dependent increase in BM microvascularity is due to local induction of proangiogenic signals, immunostaining for candidate angiogenic factors already implicated in marrow endothelial signaling was performed.

[3] = test system: osteoblastic UMR106 cells; assay: In vitro PTH stimulation of osteoblastic UMR106 cells; type: cell-based
Experimental: (§4) To determine if PTH increases osteoblast-derived VEGF-A, in vitro PTH stimulation experiments were performed on two osteoblastic cell lines. […] Osteoblastic differentiation was observed through maturational changes in gene expression of Collagen1, Osteocalcin and Pth1r and the ability to form mineralized bone nodules. […] To test whether PTH could directly induce VEGF-A in primary mouse osteoblastic cells as it could in osteoblastic cell lines, mouse bone marrow stroma was harvested and cultured in osteoblastic maturation media prior to stimulation with PTH at specific points throughout differentiation. Again, osteoblastic differentiation was monitored through analysis of Collagen1, Osteocalcin and Pth1r expression as well as by the formation of mineralizing bone nodules.

[4] = test system: mouse calvarial MC3T3 cells; assay: In vitro PTH stimulation of MC3T3 cells during osteoblastic differentiation; type: cell-based
From the text: Osteoblasts (OBs) and the bone marrow (BM) vasculature constitute hematopoietic stem and progenitor cell (HSPC) niches. OB-activation by Parathyroid Hormone (PTH) expands HSPCs through the BM microenvironment. Activation of osteoblasts through systemic PTH treatment or expression of a constitutively active PTH1 receptor (PTH1R) increases trabecular bone and expands HSPCs in the bone marrow. To test if the vasculature is modulated by PTH, it was first assessed whether PTH expands BM endothelial structures. In a murine model of HSPC-expanding PTH treatment, PTH increased microvessels and vascular area in hindlimb histology (FIG. 3A, 3B and 3E-3H). […] To determine if PTH expands BM vasculature by increasing proangiogenic signals, VEGF-A was analyzed in PTH-stimulated BM. […] To establish whether PTH directly stimulates osteoblastic Vegfa expression, mouse calvarial MC3T3 cells were treated with PTH at various stages of osteoblastic maturation. […] The magnitude of induction increased throughout osteoblastic differentiation. […]
To determine if PTH increases osteoblast-derived VEGF-A, in vitro PTH stimulation experiments were performed on two osteoblastic cell lines. […] Again, osteoblastic differentiation was monitored through analysis of Collagen1, Osteocalcin and Pth1r expression as well as by the formation of mineralizing bone nodules.

[5] = test system: primary mouse osteoblastic cells; assay: PTH stimulation of primary mouse osteoblastic cells from bone marrow stroma; type: cell-based
Experimental: as §4

osteolineage cells = assay: Angiogenic signals (FGF2, Vegfa) in marrow and osteolineage cells of treated mice; type: in vivo
Experimental: FGF2 is another angiogenic signal within the BM. In contrast to the effects of VEGF-A on endothelial permeability and migration, FGF2 enforces vascular stability. To determine whether osteoblastic activation by PTH can remodel the BM vasculature through the action of multiple angiogenic signals or VEGF-A alone, FGF2 changes in the marrow of PTH-stimulated mice were analyzed. Indeed, increased endosteal-associated FGF2 in hindlimb BM of mice treated with TID PTH, with a localization pattern similar to that of VEGF was observed. Moreover, FGF2 expression levels were increased within osteolineage cells isolated from TID PTH mice (FIG. 10E).
Immunoreactive VEGF-A and FGF2 were both very high along endosteal surfaces of the hindlimb BM cavity following PTH as compared to control treatment.

trabecular bone = assay: Micro-CT analysis of trabecular bone; type: in vivo, mice
Experimental: The limbs were scanned on a Viva CT 40 (Scanco Medical, Bruttisellen, Switzerland) using a 55-kVp, 145-uA current and a 300-ms integration time with a resolution of 12.5 μm. Trabecular analysis was conducted on a 1.25-mm region 50 μm above the growth plate in the femur and a 625-μm 50 um below the growth plate in the tibia. Cortical analysis was conducted 4.375 mm above/below the growth plate of the femur/tibia for a distance of 375 μm.
Due to the dramatic induction of osteoblastic VEGF-A observed in the setting of PTH stimulation, the functional relevance of this signal in multiple aspects of BM microenvironmental activation was analyzed.

[6] = test system: hematopoietic stem and progenitor cells (HSPCs); assay: Flow cytometric analysis of bone marrow HSPCs from treated mice; type: in vivo, C57B1/6 mice; settings: for PTH-induced expansion of phenotypic and functional BM HSPCs: αVEGF in combination with PTH
Experimental: as §2, with “test. […]” for “test.”

HSPCs = assay: Competitive transplantation of whole BM into lethally irradiated recipient mice; type: in vivo, C57B1/6 mice; settings: primary recipients of treated donor BM
Experimental: Competitive transplantation of these cells was performed using a 4:1 donor to competitor cell ratio where the competitor was a C57B1/6 wildtype CD45.2-expressing male mouse and the recipient mice (10 mice per experimental group) were also C57B1/6 wildtype CD45.2-expressing male mice (6-8 weeks of age) that had been conditioned with a split dose of 10 Gray total body irradiation. Cell cocktails (containing the 4:1 ratio donor to competitor whole bone marrow cells) were transplanted into recipients by retro-orbital injection. Recipient mice were placed on a diet containing sulfatrim prior to the transplant and for 1 month post transplantation. Peripheral blood samples were collected at 3 weeks post transplant by bleeding from the sub-mandibular venous plexus into EDTA-containing microtainer blood tubes. Blood was then separated in order to isolate an enriched sample of mononuclear cells using PBS and dextran separation. Mononuclear cells were subjected to red blood cell lysis and then prepared for flow cytometry using a panel of antibodies recognizing B, T and myeloid cells as well as CD45.1 and CD45.2. Samples were then run on an LSR-II 12 color flow cytometer and data was analyzed using TreeStar's FlowJo software. Statistics between treatment groups were analyzed by student's T test. […]

[7] = test system: BM blood vessels and perivascular stromal cells; assay: CD31 and αSMA immunostaining in the BM; type: in vivo, mice; settings: PTH
Experimental: as §3

OBs = assay: PTH stimulation of OBs in vitro; type: cell-based
LSKs = assay: Growth and survival of LSKs cultured in cytokine-supplemented media; type: cell-based, mice; settings: increasing concentrations of αVEGF
CD105+ mesenchymal cells = assay: Flow cytometry of CD105+/Endoglin+ CD45− bone marrow mesenchymal cells; type: in vivo, C57B1/6 mice; settings: bevacizumab with PTH(1-34) or vehicle, 10 days
Experimental: When administered to a live animal, pimonidazole-HCl precipitates in cells containing<14 μM oxygen or pO2<10 mm Hg and can be detected immunohistochemically. […] FIG. 7A is a schematic of VEGF-blocking experiment. […] FIG. 7B is a graph showing frequency of CD31+ Sca1+ bone marrow endothelial cells isolated from C57B1/6 mice treated as indicated. FIG. 7C is a graph showing frequency of
CD105+/Endoglin+ CD45− non-hematopoietic bone marrow mesenchymal cells isolated from C57B1/6 mice treated as indicated. *P<0.05, **P<0.01

[8] = αVEGF during TID PTH, effect on the effects of PTH
[9] = αVEGF, baseline or PTH-enhanced

Substance: Parathyroid hormone (1-34) [PTH]
- BM microvessels / vascular structures per hindlimb section (femur and tibia) (BM vasculature): increased
- vascular area (tibial metaphysis) (BM vasculature): increased
- CD31+ Sca1+ BM endothelial cells ([1]; PTH treatment vs vehicle): increased; also recorded: expanded
- vessel frequency, density or volume [2]: no increase
- VEGF-A protein staining in BM (VEGF-A): increased along bone surfaces; also recorded: strongly increased; also recorded: global increase
- VEGF-A protein secretion ([3]; by six hours post PTH-stimulation): increase
- Vegfa expression ([3]; two hours post PTH stimulation, n=3, p=0.0055): 8.500±1.320 fold change above baseline
- secreted VEGF-A protein [4]: increased; also recorded: robust
- Vegfa expression ([4]; throughout osteoblastic differentiation): strongly induced; also recorded: induced
- soluble VEGF-A protein secreted into the culture media ([5]; PTH treatment): a significant effect of PTH treatment was not detected
- Vegfa mRNA levels ([5]; as early as four hours post PTH treatment of maturing osteoblastic cells): increased
- endosteal-associated FGF2 in hindlimb BM (osteolineage cells; TID PTH): increased
- FGF2 expression levels within osteolineage cells (osteolineage cells; cells isolated from TID PTH mice): increases
- Vegfa expression in osteolineage bone-associated cells (osteolineage cells; cells isolated from mice treated with PTH): increases
- trabecular bone (trabecular bone; systemic PTH treatment): increases
- HSPCs in the bone marrow ([6]; systemic PTH treatment): expands
- multilineage hematopoietic reconstitution (HSPCs): transiently increased
- perivascular α smooth muscle actin (αSMA+) [7]: increase
- small BM blood vessels (CD31 immunostaining) associated with trabecular and cortical bone [7]: expansion
- FGF2 in OBs in vitro (OBs): simultaneously increased
- expression of VEGF-A in OBs in vitro (OBs): increased

Substance: bevacizumab: anti-VEGF-A monoclonal antibody bevacizumab (referred to as αVEGF); humanized monoclonal antibody
- PTH-mediated expansion of BM endothelial cells ([1]; listed as Bevacizumab): blunted
- PTH-mediated expansion of BM endothelial cells ([1]; listed as anti-VEGF therapy): blocks
- PTH-mediated expansion of BM endothelial cells ([1]; listed as αVEGF): significantly decreased
- connectivity density of the trabecular bone (trabecular bone; [8]): augment
- number of bony trabeculae (trabecular bone; [8]): augment
- bone anabolic action of PTH (trabecular bone; αVEGF in combination with PTH): without blocking
- trabecular bone volume (trabecular bone; [9]): did not significantly alter
- trabecular spacing (trabecular bone; [9]): did not significantly alter
- PTH-mediated expansion of HSCs (Flt3−, CD48−, CD150+ LSKs) ([6]; VEGF inhibition with PTH): did not diminish
- HSPCs ([6]; anti-VEGF therapy with or without PTH): expands
- PTH-induced expansion of multipotent progenitor/short term repopulating HSPCs (MPP/ST-HSPCs) ([6]; bevacizumab and PTH vs PTH alone): augmented
- PTH-induced expansion of phenotypic and functional BM HSPCs [6]: further increased
- PTH-induced expansion of phenotypic and functional BM HSPCs ([6]; listed as anti-VEGF-A treatment): augments
- Flt3+, CD48−, CD150− LSKs ([6]; αVEGF in the setting of PTH): trend towards an increase
- hematopoietic lineage−, Sca1+, c-kit+ cells (LSKs) ([6]; αVEGF in the setting of PTH): trend towards an increase
- Flt3+, CD48−, CD150− LSKs ([6]; αVEGF treatment alone): expanded
- hematopoietic lineage−, Sca1+, c-kit+ cells (LSKs) ([6]; αVEGF treatment alone): expanded
- growth and survival of LSKs (LSKs): not significantly affected
- CD105+ mesenchymal cells (CD105+ mesenchymal cells): does not reduce
